Measurements from paper PMC5510653 (ACS chemical neuroscience, 2016).

Assays:
[1] = tested on: MPTP-treated parkinsonian monkeys; test: Motor behavior in MPTP-treated parkinsonian monkeys; type: in vivo, Rhesus monkeys
[2] = tested on: haloperidol-induced catalepsy; conditions: haloperidol-induced catalepsy model in rats ref 38; cited from earlier work
[3] = rhesus monkey, in vivo, sc, 10 mg/kg
[4] = tested on: MPTP-treated parkinsonian monkey; test: ECoG recordings and scoring of state of arousal and movements; type: in vivo, Rhesus monkey; conditions: ML218 3 mg/kg s.c., one monkey
[5] = tested on: MDCK-MDR1 (MDCK-Pgp) cells
[6] = tested on: electrical cardiac activities; test: Effects of ML218 on cardiac function; type: in vivo, Rhesus monkeys; conditions: ketamine sedation
[7] = rhesus monkey
TH immunolabeling = test: Post-mortem TH immunoperoxidase staining of striatum; type: in vivo, Rhesus monkeys; conditions: 7 MPTP-treated animals vs mean of 3 non-treated monkeys, mean ± SEM
slow-wave sleep = conditions: mice ref 39, 40; cited from earlier work

Which “antiparkinsonian effects (number of movements, activity counts)” value ([1]; L-DOPA 5, 10, 15, 20 mg/kg i.m. in combination with benserazide) does the source give for `N[C@@H](Cc1ccc(O)c(O)c1)C(=O)O` [L-DOPA, reference compound] here?
The value was “strong, dose-dependent antiparkinsonian effects”.

With `CC(C)(C)CCN1C[C@@H]2C(CNC(=O)c3cc(Cl)cc(Cl)c3)[C@@H]2C1` (stereo partly shown) [ML218] as the molecule, how does the anti-cataleptic properties [2] read?
Its anti-cataleptic properties is “anti-cataleptic properties”.

And the “CSF Tmax” value [3]?
The value was 1 to 2 h.

What about the “mean number of movements per 5 minute of observation” value ([4]; 2 hours of observation, vehicle 51.07 ± 6.42, p=0.016) of the same molecule?
The value was 25.39 ± 4.52.

And the sleep ratio ([4]; within 120 minutes, vehicle 0.09 ± 0.06, p=0.008)?
Its sleep ratio is 0.54 ± 0.06.

And the “Papp AB” value [5]?
The value was 2.6e^− 6 cm/sec.

And the “effect of adding ML218 on L-DOPA-mediated responses” value ([1]; ML218 3 mg/kg s.c. 60 min before L-DOPA 10 mg/kg i.m. plus 2.5 mg/kg benserazide)?
The value was “did not alter the L-DOPA-mediated responses”.

What about the “activity counts compared to baseline” value ([1]; ML218 10 mg/kg s.c., p=0.002) of the same molecule?
Its value is “reduced”.

And the “number of movements compared to baseline” value ([1]; ML218 10 mg/kg s.c., p=0.006)?
Its value is “reduced”.

And the “antiparkinsonian effects (number of movements, activity counts)” value ([1]; ML218 1, 10 and 30 mg/kg s.c., observed from 1 hour after injection)?
The value was “no antiparkinsonian effects”.

What about the “chronotropic effect (R-R interval)” value ([6]; 30 mg/kg s.c., ECG two hours after injection, 3 animals) of the same molecule?
Its value is “minor negative chronotropic effects”.

And the “effects on the other ECG parameters studied (PR, RT intervals)” value ([6]; 10 and 30 mg/kg s.c.)?
Its value is “no consistent effects”.

What about the “Fu (fraction of unbound compound in plasma)” value [7] of the same molecule?
The value was 0.09.

What does the source list for `CN1CC=C(c2ccccc2)CC1` [MPTP]?
reduction of TH immunolabeling in the caudate (TH immunolabeling): 89 ± 3%; reduction of TH immunolabeling in the post-commissural putamen (TH immunolabeling): 87 ± 3%

Which “effect on slow-wave sleep” value (slow-wave sleep) does the source give for `C[C@@H](NC(=O)Cc1ccc(C2CC2)cc1)c1ccc(OCC(F)(F)F)cn1` [TTA-A2] here?
Its value is “promotes slow-wave sleep”.
